Measured values: patent publication US20250262186A1 (SANOFI, priority 2022, published 2025)
Counter-ions that a name gives are not always drawn.

target: T1, ERα (Homo sapiens, UniProt P03372); assay: Estrogen receptor degradation activity: breast cancer cell ERα in cell western assay in MCF7 cells; format: cell-based; settings: 0.3 μM, 4 hours, relative to fulvestrant 0.1 μM positive control
T1 construct: made using a breast cancer cell ERα in cell western assay; host or cells: MCF7
T1 sequence (P03372 1-595): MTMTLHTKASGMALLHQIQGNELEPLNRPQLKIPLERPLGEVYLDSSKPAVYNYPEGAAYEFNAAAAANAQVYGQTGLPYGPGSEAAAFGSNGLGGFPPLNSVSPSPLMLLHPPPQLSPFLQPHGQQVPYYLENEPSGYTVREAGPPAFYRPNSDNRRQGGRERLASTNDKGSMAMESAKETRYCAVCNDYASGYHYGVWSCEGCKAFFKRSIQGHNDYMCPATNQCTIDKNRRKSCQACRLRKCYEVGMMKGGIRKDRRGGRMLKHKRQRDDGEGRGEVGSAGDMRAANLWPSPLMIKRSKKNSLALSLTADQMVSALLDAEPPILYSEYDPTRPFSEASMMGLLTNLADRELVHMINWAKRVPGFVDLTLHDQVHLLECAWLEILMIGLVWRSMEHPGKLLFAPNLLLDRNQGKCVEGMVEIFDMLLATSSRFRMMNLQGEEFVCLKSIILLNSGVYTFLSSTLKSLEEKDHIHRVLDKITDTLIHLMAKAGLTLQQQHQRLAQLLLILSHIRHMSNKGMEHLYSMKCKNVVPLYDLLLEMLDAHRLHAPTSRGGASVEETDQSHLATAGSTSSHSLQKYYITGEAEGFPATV
Method: Said test involves measuring the in vitro degradation activity of the compounds of the Table 1a.
The measurements of the degradation activities were made using a breast cancer cell ERα in cell western assay as described hereunder.
MCF7 cells (ATCC) were seeded in 384 wells microplate (collagen coated) at a concentration of 10000 cells/30 μL per well in red phenol free MEM alpha medium (invitrogen) containing 5% charcoal dextran striped FBS. The following day, 9 points serial 1:5 dilution of each compound was added to the cells in 2.5 μL at final concentrations ranging from 0.3-0.0000018 μM (in table 2), or 0.1 μM for fulvestrant (using as positive control). At 4 hours post compound addition the cells were fixed by adding 25 μL of formalin (final concentration 5% formalin containing 0.1% triton) for 10 minutes at room temperature and then washed twice with PBS. Then, 50 μL of LI-COR blocking buffer containing 0.1% Triton was added to plate for 30 minutes at room temperature. LI-COR blocking buffer was removed and cells were incubated overnight at cold room with 50 μL anti-ER rabbit monoclonal antibody (Thermo scientific MA1-39540) diluted at 1:1000 in LI-COR blocking buffer containing 0.1% tween-20. Wells which were treated with blocking buffer but no antibody were used as background control. Wells were washed twice with PBS (0.1% tween-20) and incubated at 37° C. for 60 minutes in LI-COR (0.1% tween-20) containing goat anti-rabbit antibody Alexa 488 (1:1000) and Syto-64 a DNA dye (2 μM final concentration). Cells were then washed 3 times in PBS and scanned in ACUMEN explorer (TTP-Labtech). Integrated intensities in the green fluorescence and red fluorescence were measured to determine the levels of ERα and DNA respectively.
The degradation activity with respect to estrogen receptors in this test is given by the concentration which degrades 50% of the estrogen receptor (or IC50) in nM.
The % of ERα levels decrease were determined as follows: % inhibition=100*(1−(sample−fulvestrant: DMSO−fulvestrant)).

| % Degradation At 0.3 μM [%] | Structure (SMILES) |
| --- | --- |
| 85 | Cl.O=C(O)c1ccc2c(c1)CCCC(c1ccc(Cl)cc1Cl)=C2c1cccc(O[C@@H]2CCN(CCCF)C2)c1F [Compound 21, (R)-8-(2,4-dichlorophenyl)-9-(2-fluoro-3-((1-(3-fluoropropyl)pyrrolidin-3-yl)oxy)phenyl)-6,7-dihydro-5H-benzo[7]annulene-3-carboxylic acid, hydrochloride] |
| 84 | Cc1ccc(O[C@@H]2CCN(CCCF)C2)cc1C1=C(c2ccccc2Cl)CCCc2cc(C(=O)O)ccc21 [Compound 23, (R)-8-(2-chlorophenyl)-9-(5-((1-(3-fluoropropyl)pyrrolidin-3-yl)oxy)-2-methylphenyl)-6,7-dihydro-5H-benzo[7]annulene-3-carboxylic acid] |
| 61 | Cc1ccc(O[C@@H]2CCN(CCCF)C2)cc1C1=C(c2ccc(Cl)cc2Cl)CCCc2cc(C(=O)O)ccc21 [Compound 24] |
| 77 | Cl.O=C(O)c1ccc2c(c1)CCCC(c1ccccc1)=C2c1cc(O[C@@H]2CCN(CCCF)C2)ccc1F [Compound 25, (R)-9-(2-fluoro-5-((1-(3-fluoropropyl)pyrrolidin-3-yl)oxy)phenyl)-8-phenyl-6,7-dihydro-5H-benzo[7]annulene-3-carboxylic acid, hydrochloride] |
| 90 | O=C(O)c1ccc2c(c1)CCCC(c1ccccc1Cl)=C2c1cc(O[C@@H]2CCN(CCCF)C2)ccc1F [Compound 26, (R)-8-(2-chlorophenyl)-9-(2-fluoro-5-((1-(3-fluoropropyl)pyrrolidin-3-yl)oxy)phenyl)-6,7-dihydro-5H-benzo[7]annulene-3-carboxylic acid, hydrochloride] |
| 89 | Cl.O=C(O)c1ccc2c(c1)CCCC(c1ccc(Cl)cc1Cl)=C2c1cc(O[C@@H]2CCN(CCCF)C2)ccc1F [Compound 27, (R)-8-(2,4-dichlorophenyl)-9-(2-fluoro-5-((1-(3-fluoropropyl)pyrrolidin-3-yl)oxy)phenyl)-6,7-dihydro-5H-benzo[7]annulene-3-carboxylic acid hydrochloride] |
| 57 | Cl.O=C(O)c1ccc2c(c1)CCCC(c1ccccc1Cl)=C2c1cccc(OC2CN(CCCF)C2)c1 [Compound 29, 8-(2-chlorophenyl)-9-(3-((1-(3-fluoropropyl)azetidin-3-yl)oxy)phenyl)-6,7-dihydro-5H-benzo[7]annulene-3-carboxylic acid hydrochloride] |
| 55 | Cl.O=C(O)c1ccc2c(c1)CCCC(c1ccc(Cl)cc1Cl)=C2c1cccc(OC2CN(CCCF)C2)c1 [Compound 30, 8-(2,4-dichlorophenyl)-9-(3-((1-(3-fluoropropyl)azetidin-3-yl)oxy)phenyl)-6,7-dihydro-5H-benzo[7]annulene-3-carboxylic acid hydrochloride] |
| 58 | O=C(O)c1ccc2c(c1)CCCC(c1ccc(Cl)cc1Cl)=C2c1cccc(CC2CN(CCCF)C2)c1 [Compound 31, 8-(2,4-dichlorophenyl)-9-(3-((1-(3-fluoropropyl)azetidin-3-yl)methyl)phenyl)-6,7-dihydro-5H-benzo[7]annulene-3-carboxylic acid] |
| 70 | O=C(O)c1ccc2c(c1)CCCC(c1ccc(Cl)cc1Cl)=C2c1cccc(NC2CN(CCCF)C2)c1 [Compound 32, 8-(2,4-dichlorophenyl)-9-(3-((1-(3-fluoropropyl)azetidin-3-yl)amino)phenyl)-6,7-dihydro-5H-benzo[7]annulene-3-carboxylic acid] |
| 79 | Cl.O=C(O)c1ccc2c(c1)CCCC(c1ccc(Cl)cc1Cl)=C2c1cccc(N[C@@H]2CCN(CCCF)C2)c1 [Compound 33, (R)-8-(2,4-dichlorophenyl)-9-(3-((1-(3-fluoropropyl)pyrrolidin-3-yl)amino)phenyl)-6,7-dihydro-5H-benzo[7]annulene-3-carboxylic acid hydrochloride] |
| 65 | Cl.O=C(O)c1ccc2c(c1)OCCC(c1ccc(Cl)cc1Cl)=C2c1cccc(O[C@@H]2CCN(CCCF)C2)c1 [Compound 35, (R)-4-(2,4-dichlorophenyl)-5-(3-((1-(3-fluoropropyl)pyrrolidin-3-yl)oxy)phenyl)-2,3-dihydrobenzo[b]oxepine-8-carboxylic acid hydrochloride] |
| 66 | FCCCN1CC[C@@H](Oc2cccc(C3=C(c4ccc(Cl)cc4Cl)CCCc4ccccc43)c2)C1 [Compound 38, (R)-3-(3-(8-(2,4-dichlorophenyl)-6,7-dihydro-5H-benzo[7]annulen-9-yl)phenoxy)-1-(3-fluoropropyl)pyrrolidine] |
| 78 | FCCCN1CC[C@@H](Oc2cccc(C3=C(c4ccccc4Cl)CCCc4ccccc43)c2)C1 [Compound 39, (R)-3-(3-(8-(2-chlorophenyl)-6,7-dihydro-5H-benzo[7]annulen-9-yl)phenoxy)-1-(3-fluoropropyl)pyrrolidine] |
| 88 | Cl.O=C(O)c1ccc2c(c1)CCC(c1ccc(Cl)cc1Cl)=C2c1cccc(O[C@@H]2CCN(CCCF)C2)c1 [Compound 40, (R)-6-(2,4-dichlorophenyl)-5-(3-((1-(3-fluoropropyl)pyrrolidin-3-yl)oxy)phenyl)-7,8-dihydronaphthalene-2-carboxylic acid hydrochloride] |
| 75 | Oc1ccc2c(c1)SCCC(c1ccc(Cl)cc1Cl)=C2c1cccc(O[C@@H]2CCN(CCCF)C2)c1 [Compound 41, (R)-4-(2,4-dichlorophenyl)-5-(3-((1-(3-fluoropropyl)pyrrolidin-3-yl)oxy)phenyl)-2,3-dihydrobenzo[b]thiepin-8-ol] |
